Assay results as given in patent publication US20210387968A1, “HETEROARYLMETHYLENE DERIVATIVES AS DNA POLYMERASE THETA INHIBITORS” (IDEAYA Biosciences, Inc., priority 2019, published 2021).

Molecular target: T1, Pol theta polymerase domain (residues 1819-2590) (Homo sapiens, UniProt O75417)
T1 construct: Pol theta polymerase domain (residues 1819-2590) at a final concentration of 4 nM
T1 sequence (O75417 1819-2590): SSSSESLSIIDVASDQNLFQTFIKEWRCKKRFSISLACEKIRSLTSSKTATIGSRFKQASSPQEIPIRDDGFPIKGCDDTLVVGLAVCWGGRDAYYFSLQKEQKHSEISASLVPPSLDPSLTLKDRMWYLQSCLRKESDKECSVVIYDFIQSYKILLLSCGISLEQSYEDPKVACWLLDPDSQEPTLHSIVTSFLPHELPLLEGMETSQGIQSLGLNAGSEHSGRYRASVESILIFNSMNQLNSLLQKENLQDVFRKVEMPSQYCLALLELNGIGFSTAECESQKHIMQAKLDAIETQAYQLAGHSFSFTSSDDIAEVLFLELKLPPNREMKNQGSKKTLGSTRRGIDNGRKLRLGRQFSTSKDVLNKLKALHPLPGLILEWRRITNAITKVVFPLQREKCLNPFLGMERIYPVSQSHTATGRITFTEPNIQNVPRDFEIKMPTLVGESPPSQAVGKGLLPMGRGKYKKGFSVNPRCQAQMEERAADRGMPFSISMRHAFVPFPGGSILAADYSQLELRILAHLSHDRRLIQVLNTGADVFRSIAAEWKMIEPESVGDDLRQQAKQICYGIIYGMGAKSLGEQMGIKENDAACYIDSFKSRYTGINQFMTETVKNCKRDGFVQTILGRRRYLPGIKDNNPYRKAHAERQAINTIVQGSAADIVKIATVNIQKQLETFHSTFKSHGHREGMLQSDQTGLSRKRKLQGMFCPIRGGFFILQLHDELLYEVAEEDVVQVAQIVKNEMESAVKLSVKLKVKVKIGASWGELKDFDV
Test: Pol theta polymerase primer extension assay (molecular beacon fluorescence)
Type: biochemical
Conditions: 4 nM enzyme, 15 min pre-incubation, fluorescence change over 30 min
Description: The ability of the compounds of Formula (I) to inhibit polymerase activity of Pol theta was determined using the assay described below.
A mixture of 20 uL of Pol theta polymerase domain (residues 1819-2590) at a final concentration of 4 nM in assay buffer (20 m M TRIS, pH 7.80, 50 mM KCl, 10 mM MgCl2, 1 mM DTT, 0.01% BSA, 0.01% Tween20) was added to test compounds (11-point dilution series of test compounds) except the low control wells without test compounds. The above enzyme and test compound inhibitor mixture was then incubated at room temperature for 15 min. An equal volume (20 μl) of dNTP substrate mix (48 μM) and primed molecular beacon DNA (obtained by annealing template SEQ ID NO 2: (5′-CCTTCCTCCCGTGTCTTG-TACCTTCCCGTCA-GGAGGAAGG-3′) with 5′-TAMRA and 3′-BHQ and primer DNA (SEQ ID NO 3: 5′-GACGGGAAGG-3′) in 10 mM Tris-HCl pH 8.0, 100 mM NaCl buffer) (96 nM) in assay buffer was added to all the test wells. The inhibition activity was measured by monitoring the fluorescence change over 30 min at 535 nm upon excitation at 485 nm. The high control (DMSO with enzyme) with high fluorescence intensity represents no inhibition of polymerase reaction while the low control (DMSO with buffer) with low fluorescence intensity represents full inhibition of polymerase activity. Slope of the reaction progress curves were used to calculate the rate of polymerization. The rates were used to determine the percent inhibition using a four-parameter inhibition model to generate IC50, Hill slope and max inhibition.

| Molecule | IC50 [nM] |
| --- | --- |
| 2-([[1-(4-fluorophenyl)-4- (trifluoromethyl)imidazol-2- yl]methyl]amino)-4,6- bis(trifluoromethyl)benzonitrile [compound 9] | < 200 |
| Cc1nc(OCc2nccn2-c2ccccc2)c(C#N)c(C)c1Cl [compound 1, 5-chloro-4,6-dimethyl-2-((1-phenyl-1H-imidazol-2-yl)methoxy)-nicotinonitrile] | 500 to 1000 |
| Cc1nc(NCc2nccn2-c2ccccc2)c(C#N)c(C)c1Cl [compound 2, 5-chloro-4,6-dimethyl-2-((1-phenyl-1H-imidazol-2-yl)methylamino)-nicotinonitrile] | < 200 |
| Cc1nc(NCc2nccn2-c2ccc(F)cc2)c(C#N)c(C)c1Cl [compound 3, 5-chloro-2-(((1-(4-fluorophenyl)-1H-imidazol-2-yl)methyl)amino)-4,6-dimethyl-nicotinonitrile] | < 200 |
| Fc1ccc(-n2ccnc2CNc2cc(Cl)cc(C(F)(F)F)c2)cc1 [compound 4, 3-chloro-N-((1-(4-fluorophenyl)-1H-imidazol-2-yl)methyl)-5-(trifluoromethyl)-benzenamine] | < 200 |
| N#Cc1c(C(F)(F)F)cc(C(F)(F)F)nc1NCc1nccn1-c1ccc(F)cc1 [compound 5, 2-([[1-(4-fluorophenyl)-1H-imidazol-2-yl]methyl]amino)-4,6-bis(trifluoromethyl)-pyridine-3-carbonitrile] | < 200 |
| COc1ccc(-n2ccnc2CNc2nc(C(F)(F)F)cc(C(F)(F)F)c2C#N)cc1 [compound 6, 2-([[1-(4-methoxyphenyl)-1H-imidazol-2-yl]methyl]amino)-4,6-bis(trifluoromethyl)-pyridine-3-carbonitrile] | < 200 |
| N#Cc1c(C(F)(F)F)cc(C(F)(F)F)nc1NCc1nccn1Cc1ccc(F)cc1 [compound 7, 2-[([1-[(4-fluorophenyl)methyl]-1H-imidazol-2-yl]methyl)amino]-4,6-bis-(trifluoromethyl)pyridine-3-carbonitrile] | < 200 |
| N#Cc1c(C(F)(F)F)cc(C(F)(F)F)nc1OCc1nccn1-c1ccc(F)cc1 [compound 8, 2-[[1-(4-fluorophenyl)-1H-imidazol-2-yl]methoxy]-4,6-bis(trifluoromethyl)-pyridine-3-carbonitrile] | < 200 |
| N#Cc1c(C(F)(F)F)cc(C(F)(F)F)nc1NCc1nccnc1-c1ccc(F)cc1 [compound 10, 2-((3-(4-fluorophenyl)pyrazin-2-yl)methylamino)-4,6-bis(trifluoromethyl)-nicotinonitrile] | < 200 |
| N#Cc1c(C(F)(F)F)cc(C(F)(F)F)nc1NCc1ncncc1-c1ccc(F)cc1 [compound 11, 2-((5-(4-fluorophenyl)pyrimidin-4-yl)methylamino)-4,6-bis(trifluoromethyl)-nicotinonitrile] | < 200 |
| N#Cc1c(C(F)(F)F)cc(C(F)(F)F)nc1NCc1nncn1-c1ccc(F)cc1 [compound 12, 2-((4-(4-fluorophenyl)-4H-1,2,4-triazol-3-yl)methylamino)-4,6-bis(trifluoromethyl)-nicotinonitrile] | < 200 |
| CC(Nc1nc(C(F)(F)F)cc(C(F)(F)F)c1C#N)c1nccn1-c1ccc(F)cc1 (stereo not drawn) [compound 13, 2-([1-[1-(4-fluorophenyl)imidazol-2-yl]ethyl]amino)-4,6-bis(trifluoromethyl)pyridine-3-carbonitrile] | < 200 |
| Cn1cc(-c2ccc(F)cc2)c(CNc2nc(C(F)(F)F)cc(C(F)(F)F)c2C#N)n1 [compound 14, 2-(((4-(4-fluorophenyl)-1-methyl-1H-pyrazol-3-yl)methyl)amino)-4,6-bis(trifluoromethyl)nicotinonitrile] | 1000 to 10000 |
| N#Cc1c(C(F)(F)F)cc(C(F)(F)F)nc1NCc1n[nH]cc1-c1ccc(F)cc1 [compound 15, 2-(((4-(4-fluorophenyl)-1H-pyrazol-3-yl)methyl)amino)-4,6-bis(trifluoromethyl)-nicotinonitrile] | 1000 to 10000 |
| N#Cc1c(C(F)(F)F)cc(C(F)(F)F)nc1NCc1ncccc1-c1ccc(F)cc1 [compound 16, 2-(((3-(4-fluorophenyl)pyridin-2-yl)methyl)amino)-4,6-bis(trifluoromethyl)-nicotinonitrile] | < 200 |
| N#Cc1c(C(F)(F)F)cc(C(F)(F)F)nc1NCc1nccnc1-c1ccc(F)cc1Cl [compound 17, 2-([[3-(2-chloro-4-fluorophenyl)-pyrazin-2-yl]methyl]amino)-4,6-bis(trifluoromethyl)pyridine-3-carbonitrile] | 500 to 1000 |
| N#Cc1c(C(F)(F)F)cc(C(F)(F)F)nc1NCc1ncncc1-c1ccncc1 [compound 18, 2-([[5-(pyridin-4-yl)pyrimidin-4-yl]methyl]amino)-4,6-bis(trifluoro-methyl)pyridine-3-carbonitrile] | 1000 to 10000 |
| N#Cc1c(C(F)(F)F)cc(C(F)(F)F)nc1OCc1ncccc1-c1ccc(F)cc1 [compound 19, 2-[[3-(4-fluorophenyl)pyridin-2-yl]methoxy]-4,6-bis(trifluoromethyl)pyridine-3-carbonitrile] | < 200 |
| Cc1ccc(-c2ccc(F)cc2)c(CNc2nc(C(F)(F)F)cc(C(F)(F)F)c2C#N)n1 [compound 20, 2-([[3-(4-fluorophenyl)-6-methylpyridin-2-yl]methyl]amino)-4,6-bis(trifluoromethyl)pyridine-3-carbonitrile] | < 200 |
| N#Cc1c(C(F)(F)F)cc(C(F)(F)F)nc1NCc1nccnc1-c1ccccn1 [compound 21, 2-(((3-(pyridin-2-yl)pyrazin-2-yl)methyl)amino)-4,6-bis(trifluoromethyl)-nicotinonitrile] | 200 to 500 |
| N#Cc1c(C(F)(F)F)cc(C(F)(F)F)nc1NCc1ncccc1-c1ccccn1 [compound 22] | < 200 |
| N#Cc1c(C(F)(F)F)cc(C(F)(F)F)nc1NCc1nc(O)ccc1-c1ccc(F)cc1 [compound 23, 2-([[3-(4-fluorophenyl)-6-oxo-1H-pyridin-2-yl]methyl]amino)-4,6-bis(trifluoro-methyl)pyridine-3-carbonitrile] | < 200 |
| N#Cc1ccc(-c2ccc(F)cc2)c(CNc2nc(C(F)(F)F)cc(C(F)(F)F)c2C#N)n1 [compound 24, 6-([[3-cyano-4,6-bis(trifluoromethyl)pyridin-2-yl]amino]methyl)-5-(4-fluorophenyl)pyridine-2-carbonitrile] | < 200 |
| N#Cc1c(C(F)(F)F)cc(C(F)(F)F)nc1NCc1ncccc1-c1ccc(Br)cc1 [compound 25, 2-([[3-(4-bromophenyl)pyridin-2-yl]methyl]amino)-4,6-bis(trifluoromethyl)-pyridine-3-carbonitrile] | < 200 |
| N#Cc1c(C(F)(F)F)cc(C(F)(F)F)nc1NCc1ncnn1-c1ccc(F)cc1 [compound 26, 2-(((1-(4-fluorophenyl)-1H-1,2,4-triazol-5-yl)methyl)amino)-4,6-bis(trifluoro-methyl)nicotinonitrile] | 200 to 500 |
| COc1ccc(-c2ccc(F)cc2)c(CNc2nc(C(F)(F)F)cc(C(F)(F)F)c2C#N)n1 [compound 27, 2-([[3-(4-fluorophenyl)-6-methoxypyridin-2-yl]methyl]amino)-4,6-bis(trifluoromethyl)pyridine-3-carbonitrile] | 1000 to 10000 |
